Values after ≈ are worked out from the molar mass of the structure shown. Ends that are not written are not given here. Peptide text beside a SMILES is read from it.
What was measured:
[1] = test system: A. baumannii ATCC 17978; experiment: microbe, parasite or virus in culture; settings: for Bacterial MIC: ATCC 17978, 20 h
Outline: (§1)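 Broth microdilution MIC in cation-adjusted Mueller-Hinton broth, final inoculum 1 × 10⁵ CFU/mL. Peptides in 0.02% TFA + 0.04% BSA, 2-fold series 0.25 to 128 μg/mL, duplicate, 37 °C for 20 h without agitation. Growth imaged; MIC read visually per CLSI.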

[2] = test system: A. baumannii ATCC 19606; experiment: microbe, parasite or virus in culture; settings: for Bacterial MIC: ATCC 19606, 20 h
Outline: as §1

[3] = test system: E. cloacae ATCC 13047; experiment: microbe, parasite or virus in culture; settings: for Bacterial MIC: ATCC 13047, 20 h
Outline: as §1

[4] = test system: E. cloacae ATCC 35549; experiment: microbe, parasite or virus in culture; settings: for Bacterial MIC: ATCC 35549, 20 h
Outline: as §1

[5] = test system: E. coli ATCC 35218; experiment: microbe, parasite or virus in culture
Outline: as §1

[6] = test system: E. coli ATCC 43888; experiment: microbe, parasite or virus in culture; settings: ATCC 43888, 20 h
Outline: as §1

[7] = test system: E. faecium ATCC 19434; experiment: microbe, parasite or virus in culture; settings: for Bacterial MIC: ATCC 19434, 20 h
Outline: as §1

[8] = test system: E. faecium ATCC 49224; experiment: microbe, parasite or virus in culture; settings: for Bacterial MIC: ATCC 49224, 20 h
Outline: as §1

[9] = test system: K. pneumoniae ATCC 13883; experiment: microbe, parasite or virus in culture; settings: for Bacterial MIC: ATCC 13883, 20 h
Outline: as §1

[10] = test system: K. pneumoniae ATCC 700603; experiment: microbe, parasite or virus in culture; settings: K. pneumoniae 700603; for Bacterial MIC: Week 2 (12/14/2023)
Outline: as §1

[11] = test system: P. aeruginosa ATCC 27853; experiment: microbe, parasite or virus in culture; settings: ATCC 27853, 20 h
Outline: as §1

[12] = test system: P. aeruginosa MRSN 5519; experiment: microbe, parasite or virus in culture; settings: for Bacterial MIC: MRSN 5519, 20 h
Outline: as §1

[13] = test system: S. aureus ATCC 25923; experiment: microbe, parasite or virus in culture; settings: ATCC 25923, 20 h
Outline: as §1

[14] = test system: S. aureus ATCC 43300; experiment: microbe, parasite or virus in culture; settings: S. aureus 43300; for Bacterial MIC: Week 2 (12/14/2023)
Outline: as §1

[15] = test system: P. aeruginosa PA01; experiment: microbe, parasite or virus in culture; assay type: cell-based; settings: for Bacterial MIC: P. aeruginosa 15692 (PAO1), Week 2 (12/14/2023)
Method: Antimicrobial susceptibility testing of the 20 synthesized peptides against 17 bacterial strains of clinical relevance in the ESKAPEE panel was conducted using minimum inhibitory concentration (MIC) assays following the broth microdilution method outlined by Parker et al.[91]. The ESKAPEE panel is comprised of fourteen American Type Culture Collection (ATCC) strains and three Multidrug Resistant Organism Repository and Surveillance Network (MRSN) bacterial strains. These strains represent at least one drug-susceptible strain and one drug-resistant strain for each bacterium to assess drug efficacy across various resistance mechanisms. This panel is comprised of the following bacterial species and strains: E. faecium (ATCC 19434, ATCC 49224), S. aureus (ATCC 25923, ATCC 43300), K. pneumoniae (ATCC 700603, ATCC 13883, MRSN 1320), A. baumannii (ATCC 17978, ATCC 19606, MRSN 959), P. aeruginosa (ATCC 15692, ATCC 27853, MRSN 5519), E. cloacae (ATCC 13047, ATCC 35549), and E. coli (ATCC 35218, ATCC 43888). Bacteria were grown in cation-adjusted Mueller-Hinton broth (CAMHB) to achieve a final inoculum of 1 × 10⁵ CFU/mL. CAMHB is selected for its batch-to-batch reproducibility, low levels of antimicrobial inhibitors, and ability to support the growth of most bacterial pathogens.
Briefly, lyophilized peptides were dissolved in 0.2% TFA + 0.4% BSA in water to 2.56 mg/mL, ultrasonicated for 20 min, diluted 10-fold into CAMHB, and then serially diluted 2-fold in 0.02% TFA + 0.04% BSA in CAMHB and assayed at a concentration of 0.25 to 128 μg/mL. Assays were set up using the Tecan Freedom EVO liquid handling robot and software (Tecan, Switzerland) with 50 μL of bacterial inoculum and 50 μL of peptide transferred into round-bottom 96-well microtiter plates. Each plate assay was performed in duplicate and incubated at 37 °C for 20 h without agitation. Bacterial growth was assessed using the BIOMIC V3 Image Analysis system (Giles Scientific, USA) and the MIC values were determined visually according to the Clinical and Laboratory Standards Institute (CLSI) guidelines.

[16] = test system: P. aeruginosa PA01 (Si); experiment: microbe, parasite or virus in culture; assay type: cell-based; settings: Si
Description: Supplement 41522_2025_837_MOESM13_ESM.xlsx, sheet "Table_S13_ESKAPEE-MIC" | column: Bacterial MIC (µg/mL)

[17] = test system: K. pneumoniae 4640; settings: for Bacterial MIC: 4640, 20 h
[18] = test system: A. baumannii 5075; settings: for Bacterial MIC: Week 2 (12/14/2023)
[19] = set-up: method as in Biomatik (vendor); settings: 1.0 mg peptide in 1.0 ml solvent; peptides synthesized by Biomatik; ref Biomatik (vendor); cited from earlier work
[20] = CAMHB, 1 × 10⁵ CFU/mL, 0.25 to 128 μg/mL, 37 °C 20 h, duplicate, read visually (CLSI)
[21] = E. coli 35218, Week 2 (12/14/2023)

Compound	Bacterial MIC [6]	Bacterial MIC [13]	Bacterial MIC [16]	Suggest solvent (solubility) [19]	Bacterial MIC [1]	Bacterial MIC [2]	Bacterial MIC [3]	Bacterial MIC [4]	Bacterial MIC [5, 21]	Bacterial MIC [7]	Bacterial MIC [8]	Bacterial MIC [9]	Bacterial MIC [10]	Bacterial MIC [11]	Bacterial MIC [12]	Bacterial MIC [14]	Bacterial MIC [15]	Bacterial MIC [17]	Bacterial MIC [18]	other results
CC[C@H](C)[C@H](NC(=O)[C@H](CO)NC(=O)[C@H](Cc1ccc(O)cc1)NC(=O)[C@H](CS)NC(=O)CNC(=O)[C@H](C)NC(=O)[C@H](CCCNC(=N)N)NC(=O)[C@H](CCCNC(=N)N)NC(=O)[C@H](Cc1ccc(O)cc1)NC(=O)[C@H](CS)NC(=O)[C@H](CCCCN)NC(=O)[C@H](Cc1c[nH]c2ccccc12)NC(=O)[C@@H]1CCCN1C(=O)[C@H](CCCNC(=N)N)NC(=O)[C@H](C)NC(=O)[C@H](CCCNC(=N)N)NC(=O)[C@H](CCCNC(=N)N)NC(=O)[C@@H](NC(=O)[C@H](CCCNC(=N)N)NC(=O)[C@@H](NC(=O)[C@H](CCCNC(=N)N)NC(=O)[C@H](CCCCN)NC(=O)[C@@H](N)CO)[C@@H](C)O)C(C)C)C(=O)N[C@H](C(=O)NCC(=O)N[C@@H](CCSC)C(=O)N[C@@H](Cc1ccccc1)C(=O)N[C@@H](CCCCN)C(=O)N[C@@H](CCCCN)C(=O)N[C@@H](CO)C(=O)O)[C@@H](C)CC [Pcin-CATH5] (H-SKRTRVRRARPWKCYRRAGCYSIIGMFKKS-OH; N-terminus and C-terminus assumed)	16 µg/mL	128 µg/mL	8 to 16 µg/mL	1.0mg peptide soluble in 1.0ml H2O																MIC ([1]; A. baumannii 17978, CAMHB, 1 × 10⁵ CFU/mL, 0.25 to 128 μg/mL, 37 °C 20 h, duplicate, read visually (CLSI)): 8 µg/mL (≈ 2.18 µM); MIC ([2]; A. baumannii 19606, CAMHB, 1 × 10⁵ CFU/mL, 0.25 to 128 μg/mL, 37 °C 20 h, duplicate, read visually (CLSI)): 8 µg/mL (≈ 2.18 µM); MIC ([3]; E. cloacae 13047, CAMHB, 1 × 10⁵ CFU/mL, 0.25 to 128 μg/mL, 37 °C 20 h, duplicate, read visually (CLSI)): >128 µg/mL; MIC ([4]; E. cloacae 35549, CAMHB, 1 × 10⁵ CFU/mL, 0.25 to 128 μg/mL, 37 °C 20 h, duplicate, read visually (CLSI)): >128 µg/mL; Bacterial MIC ([5]; ATCC 35218, 20 h): 16 to 32 µg/mL; MIC ([5]; ATCC 35218, 20 h): 32 µg/mL (≈ 8.74 µM); MIC ([7]; E. faecium 19434, CAMHB, 1 × 10⁵ CFU/mL, 0.25 to 128 μg/mL, 37 °C 20 h, duplicate, read visually (CLSI)): 64 µg/mL (≈ 17.5 µM); MIC ([8]; E. faecium 49224, CAMHB, 1 × 10⁵ CFU/mL, 0.25 to 128 μg/mL, 37 °C 20 h, duplicate, read visually (CLSI)): 64 µg/mL (≈ 17.5 µM); MIC ([9]; K. pneumoniae 13883, CAMHB, 1 × 10⁵ CFU/mL, 0.25 to 128 μg/mL, 37 °C 20 h, duplicate, read visually (CLSI)): >128 µg/mL; MIC [10, 20]: >128 µg/mL; MIC [11]: >128 µg/mL; MIC ([12]; P. aeruginosa 5519, CAMHB, 1 × 10⁵ CFU/mL, 0.25 to 128 μg/mL, 37 °C 20 h, duplicate, read visually (CLSI)): >128 µg/mL; MIC [13]: >128 µg/mL; MIC [14, 20]: 64 µg/mL (≈ 17.5 µM); MIC ([15]; 20 h): 16 µg/mL (≈ 4.37 µM); MIC ([17]; K. pneumoniae 4640, CAMHB, 1 × 10⁵ CFU/mL, 0.25 to 128 μg/mL, 37 °C 20 h, duplicate, read visually (CLSI)): >128 µg/mL; MIC [18, 20]: 4 µg/mL (≈ 1.09 µM)
KRAGYARMIR [PrAd-Eb18]	>128.000 µg/mL	>128.000 µg/mL	>128.000 µg/mL	1.0mg peptide soluble in 1.0ml H2O	>128.000 µg/mL	>128.000 µg/mL	>128.000 µg/mL	>128.000 µg/mL	>128.000 µg/mL	>128.000 µg/mL	>128.000 µg/mL	>128.000 µg/mL	>128.000 µg/mL	>128.000 µg/mL	>128.000 µg/mL	>128.000 µg/mL	>128.000 µg/mL	>128.000 µg/mL	>128.000 µg/mL	
RVPPGFSPFR [PrAd-Eb28]	>128.000 µg/mL	>128.000 µg/mL	>128.000 µg/mL	1.0mg peptide soluble in 1.0ml H2O	>128.000 µg/mL	>128.000 µg/mL	>128.000 µg/mL	>128.000 µg/mL	>128.000 µg/mL	>128.000 µg/mL	>128.000 µg/mL	>128.000 µg/mL	>128.000 µg/mL	>128.000 µg/mL	>128.000 µg/mL	>128.000 µg/mL	>128.000 µg/mL	>128.000 µg/mL	>128.000 µg/mL	
